{"source": "patent US20110105496A1", "about": "“Methods For The Treatment Of Myosin Heavy Chain-Mediated Conditions Using 4,7-Dihydrothieno[2,3-B]Pyridine Compounds” (priority 2005, published 2011)", "tested_on": "alpha-MyHC", "experiment": "alpha-MyHC cytoblot process in neonatal rat ventricular myocytes (NRVM)", "type": "cell-based", "conditions": "Table 1, NRVM, 72 hours; for EC50: alpha-MyHC cytoblot, mean ± spread; for Max Plateau: maximum of dose response fit, low control = vehicle only", "method": "In vitro activity of each compound is measured using the alpha-MyHC cytoblot process. Briefly, neonatal rat ventricular myocytes (NRVM) at 120,000 cells/ml in HyQ DME/High modified culture media supplemented with 10% charcoal/dextran treated FBS, 0.1% Nutridoma-SP, 1:100 MEM non-essential amino acids, 1:50 MEM amino acids solution w/o L-Gln, 1 mM sodium pyruvate and 1:100 P/S/G, are plated on gelatin coated sterile 384-well plates (Costar 3712) at 6,000 cells per well. Cells are incubated overnight at 37° C. in 5% CO2 100% humidity. Following overnight growth the media is changed to HyQ DME/High modified culture media supplemented with 0.3% Nutridoma-SP, 1:100 MEM non-essential amino acids, 1:50 MEM amino acids solution w/o L-Gln, 1 mM sodium pyruvate and 1:100 P/S/G. Cells are then dosed with serial dilutions of each compound in DMSO. Each concentration in the dose range is dosed in quadruplicate. Dosing is done in such a way so that the final DMSO concentration was 0.44%. Compound dilutions are 3-fold with the final top concentration of 10 uM. […] Following dosing, the cells are incubated for 72 hours at 37° C. in 5% CO2 100% humidity and then processed with the cytoblot method. Briefly, cell media is aspirated and cell monolayers washed with PBS and fixed with 100% methanol for 30 minutes. Fixed cells are then blocked with PBS, 0.05% Tween-20, 1% BSA, for 1 hour. Following blocking, cells are incubated with primary alpha-MyHC-specific antibody antibody (1:30 dilution of BA-G5 hybridoma conditioned media, ATCC HB276) for 1 hour. Following incubation with the primary antibody, cells are washed with PBS, 0.05% Tween-20, 1% BSA and incubated with secondary antibody (1:1000 dilution, goat-anti-mouse HRP, Southern Biotech, 1031-05) for 1 hour. Following incubation with the secondary antibody, wells are washed and incubated in SuperSignal, West Dura HRP-luminescence substrate for 30 seconds under shaking at room temperature. Luminescence is measured using a Packard Fusion plate reader. […] RLU values are converted into per cent fraction of low control and dose responses are fitted to a sigmoidal 4-parameter equation (XLFit, IDBS) where the EC50 and Max Plateau values were extracted. […] Max Plateau is the […] maximum value determined by the dose response fit.", "data": [{"molecule": "CC(=O)C1=C(C)Nc2sc(C(=O)c3ccc(Cl)c(Cl)c3)c(N)c2C1c1ccc(Br)cc1", "note": "(centres unmarked) [Compound 22]", "values": [{"measurement": "EC50", "value": 2070, "unit": "nM"}, {"measurement": "Max Plateau", "value": "174.35 ± 23.39 per cent fraction of low control"}]}, {"molecule": "CC(=O)C1=C(C)Nc2sc(C(=O)c3ccc(Cl)c(Cl)c3)c(N)c2C1c1ccc(O)cc1", "note": "(centres unmarked) [Compound 23]", "values": [{"measurement": "EC50", "value": 339, "unit": "nM"}, {"measurement": "Max Plateau", "value": "277.53 ± 33.46 per cent fraction of low control"}]}, {"molecule": "CC(=O)C1=C(C)Nc2sc(C(=O)c3ccccc3)c(N)c2C1c1ccccc1F", "note": "(centres unmarked) [Compound 24]", "values": [{"measurement": "EC50", "value": 273, "unit": "nM"}, {"measurement": "Max Plateau", "value": "260.35 ± 43.53 per cent fraction of low control"}]}, {"molecule": "CC(=O)C1=C(C)Nc2sc(C(=O)c3ccc(Cl)c(Cl)c3)c(N)c2C1c1ccc(CNC(=O)OC(C)(C)C)cc1", "note": "(centres unmarked) [Compound 25]", "values": [{"measurement": "Max Plateau", "value": "100.00 ± 0.00 per cent fraction of low control"}]}, {"molecule": "CC(=O)C1=C(C)Nc2sc(C(=O)c3ccccc3)c(N)c2C1C1CCCCC1", "note": "(centres unmarked) [Compound 26]", "values": [{"measurement": "EC50", "value": 943, "unit": "nM"}, {"measurement": "Max Plateau", "value": "185.33 ± 55.04 per cent fraction of low control"}]}, {"molecule": "CC(=O)C1=C(C)Nc2sc(C(=O)c3ccc(Cl)c(Cl)c3)c(N)c2C1c1ccccc1F", "note": "(centres unmarked) [Compound 27]", "values": [{"measurement": "EC50", "value": 86.4, "unit": "nM"}, {"measurement": "Max Plateau", "value": "220.13 ± 23.10 per cent fraction of low control"}]}, {"molecule": "CC(=O)C1=C(C)Nc2sc(C(=O)c3ccc(Cl)c(Cl)c3)c(N)c2C1c1ccc(O)cc1Cl", "note": "(centres unmarked) [Compound 29]", "values": [{"measurement": "EC50", "value": 15.5, "unit": "nM"}, {"measurement": "Max Plateau", "value": "281.88 ± 32.78 per cent fraction of low control"}]}, {"molecule": "Nc1c(C(=O)c2ccccc2)sc2c1C(c1ccccc1)C(C(=O)c1ccccc1)=C(c1ccccc1)N2", "note": "(centres unmarked) [Compound 30]", "values": [{"measurement": "Max Plateau", "value": "100.00 ± 0.00 per cent fraction of low control"}]}, {"molecule": "CC(=O)C1=C(C)Nc2sc(C(=O)c3ccc(Cl)c(Cl)c3)c(N)c2C1c1cccc2c1OCO2", "note": "(centres unmarked) [Compound 31]", "values": [{"measurement": "Max Plateau", "value": "121.08 ± 18.32 per cent fraction of low control"}]}, {"molecule": "CC(=O)C1=C(C)Nc2sc(C(=O)c3ccc(Cl)c(Cl)c3)c(N)c2C1c1ccc(C(C)(C)C)cc1", "note": "(centres unmarked) [Compound 32]", "values": [{"measurement": "Max Plateau", "value": "100.00 ± 0.00 per cent fraction of low control"}]}, {"molecule": "CC(=O)C1=C(C)Nc2sc(C(=O)c3ccc(Cl)c(Cl)c3)c(N)c2C1c1cc(Cl)cc(Cl)c1", "note": "(centres unmarked) [Compound 33]", "values": [{"measurement": "EC50", "value": 1950, "unit": "nM"}, {"measurement": "Max Plateau", "value": "143.15 ± 21.22 per cent fraction of low control"}]}, {"molecule": "CC(=O)C1=C(C)Nc2sc(C(=O)c3ccc(Cl)c(Cl)c3)c(N)c2C1c1ccccc1O", "note": "(centres unmarked) [Compound 34]", "values": [{"measurement": "EC50", "value": 1250, "unit": "nM"}, {"measurement": "Max Plateau", "value": "184.69 ± 15.76 per cent fraction of low control"}]}, {"molecule": "CCC(=O)C1=C(CC)Nc2sc(C(=O)c3ccc(Cl)c(Cl)c3)c(N)c2C1c1ccccc1", "note": "(centres unmarked) [Compound 36]", "values": [{"measurement": "EC50", "value": 6.18, "unit": "nM"}, {"measurement": "Max Plateau", "value": "256.56 ± 24.93 per cent fraction of low control"}]}, {"molecule": "CC(=O)C1=C(C)Nc2sc(C(=O)c3ccccc3)c(N)c2C1c1ccc(F)cc1", "note": "(centres unmarked) [Compound 37]", "values": [{"measurement": "EC50", "value": 281, "unit": "nM"}, {"measurement": "Max Plateau", "value": "227.92 ± 12.46 per cent fraction of low control"}]}, {"molecule": "CCC(=O)C1=C(CC)Nc2sc(C(=O)c3ccc(Cl)c(Cl)c3)c(N)c2C1c1ccccc1Cl", "note": "(centres unmarked) [Compound 38]", "values": [{"measurement": "EC50", "value": 16.1, "unit": "nM"}, {"measurement": "Max Plateau", "value": "288.93 ± 52.81 per cent fraction of low control"}]}, {"molecule": "CCC(=O)C1=C(CC)Nc2sc(C(=O)c3ccc(Cl)c(Cl)c3)c(N)c2C1c1c(F)cccc1Cl", "note": "(centres unmarked) [Compound 40]", "values": [{"measurement": "EC50", "value": 14.4, "unit": "nM"}, {"measurement": "Max Plateau", "value": "244.87 ± 7.92 per cent fraction of low control"}]}, {"molecule": "CC(=O)C1=C(C)Nc2sc(C(=O)c3ccc(Cl)c(Cl)c3)c(N)c2C1c1cccs1", "note": "(centres unmarked) [Compound 41]", "values": [{"measurement": "EC50", "value": 369, "unit": "nM"}, {"measurement": "Max Plateau", "value": "178.47 ± 7.82 per cent fraction of low control"}]}, {"molecule": "CC(=O)C1=C(C)Nc2sc(C(=O)c3ccc(Cl)c(Cl)c3)c(N)c2C1c1ccc[nH]1", "note": "(centres unmarked) [Compound 42]", "values": [{"measurement": "EC50", "value": 4590, "unit": "nM"}, {"measurement": "Max Plateau", "value": "160.56 ± 20.02 per cent fraction of low control"}]}, {"molecule": "CC(=O)C1=C(C)Nc2sc(C(=O)c3ccccc3)c(N)c2C1c1ccc(C(F)(F)F)cc1", "note": "(centres unmarked) [Compound 44]", "values": [{"measurement": "EC50", "value": 1720, "unit": "nM"}, {"measurement": "Max Plateau", "value": "186.67 ± 11.55 per cent fraction of low control"}]}, {"molecule": "CC(=O)C1=C(C)Nc2sc(C(=O)c3ccc(Cl)c(Cl)c3)c(N)c2C1c1ccc(C)cc1", "note": "(centres unmarked) [Compound 45]", "values": [{"measurement": "Max Plateau", "value": "108.63 ± 9.14 per cent fraction of low control"}]}, {"molecule": "CC(C)C(=O)C1=C(C(C)C)Nc2sc(C(=O)c3ccc(Cl)c(Cl)c3)c(N)c2C1c1ccccc1", "note": "(centres unmarked) [Compound 46]", "values": [{"measurement": "Max Plateau", "value": "98.33 ± 4.08 per cent fraction of low control"}]}, {"molecule": "CC(=O)C1=C(C)Nc2sc(C(=O)c3ccc(Cl)c(Cl)c3)c(N)c2C1c1ccc(Cl)c(Cl)c1", "note": "(centres unmarked) [Compound 47]", "values": [{"measurement": "EC50", "value": 116, "unit": "nM"}, {"measurement": "Max Plateau", "value": "173.47 ± 25.64 per cent fraction of low control"}]}, {"molecule": "CC(=O)C1=C(C)Nc2sc(C(=O)c3ccc(Cl)c(Cl)c3)c(N)c2C1c1ccc(C(F)(F)F)cc1", "note": "(centres unmarked) [Compound 48]", "values": [{"measurement": "EC50", "value": 5110, "unit": "nM"}, {"measurement": "Max Plateau", "value": "190.81 ± 37.09 per cent fraction of low control"}]}, {"molecule": "CCC(=O)C1=C(CC)Nc2sc(C(=O)c3cccc(F)c3)c(N)c2C1c1ccccc1", "note": "(centres unmarked) [Compound 49]", "values": [{"measurement": "EC50", "value": 14.4, "unit": "nM"}, {"measurement": "Max Plateau", "value": "299.18 ± 42.31 per cent fraction of low control"}]}, {"molecule": "CC(=O)C1=C(C)Nc2sc(C(=O)c3ccc(Cl)c(Cl)c3)c(N)c2C1c1ccc(F)cc1", "note": "(centres unmarked) [Compound 50]", "values": [{"measurement": "EC50", "value": 161, "unit": "nM"}, {"measurement": "Max Plateau", "value": "190.79 ± 27.94 per cent fraction of low control"}]}, {"molecule": "CC(=O)C1=C(C)Nc2sc(C(=O)c3ccc(Cl)c(Cl)c3)c(N)c2C1c1ccc(Cl)cc1Cl", "note": "(centres unmarked) [Compound 52]", "values": [{"measurement": "Max Plateau", "value": "122.73 ± 20.55 per cent fraction of low control"}]}, {"molecule": "CCC(=O)C1=C(CC)Nc2sc(C(=O)c3ccc(Cl)c(Cl)c3)c(N)c2C1c1ccccc1Cl", "note": "(centres unmarked) [Compound 53]", "values": [{"measurement": "EC50", "value": 58.1, "unit": "nM"}, {"measurement": "Max Plateau", "value": "259.43 ± 26.30 per cent fraction of low control"}]}, {"molecule": "CCC(=O)C1=C(CC)Nc2sc(C(=O)c3ccc(Cl)c(Cl)c3)c(N)c2C1c1cccc(Cl)c1", "note": "(centres unmarked) [Compound 54]", "values": [{"measurement": "EC50", "value": 0.59, "unit": "nM"}, {"measurement": "Max Plateau", "value": "267.44 ± 32.29 per cent fraction of low control"}]}, {"molecule": "CC(=O)C1=C(C)Nc2sc(C(=O)c3ccc(Cl)c(Cl)c3)c(N)c2C1c1cc(F)cc(F)c1", "note": "(centres unmarked) [Compound 55]", "values": [{"measurement": "EC50", "value": 45.2, "unit": "nM"}, {"measurement": "Max Plateau", "value": "229.93 ± 37.33 per cent fraction of low control"}]}, {"molecule": "CCC(=O)C1=C(CC)Nc2sc(C(=O)c3ccc(Cl)c(Cl)c3)c(N)c2C1c1ccccc1C", "note": "(centres unmarked) [Compound 56]", "values": [{"measurement": "EC50", "value": 42.9, "unit": "nM"}, {"measurement": "Max Plateau", "value": "293.74 ± 50.82 per cent fraction of low control"}]}, {"molecule": "CC(=O)C1=C(C)Nc2sc(C(=O)c3ccccc3Cl)c(N)c2C1c1ccccc1", "note": "(centres unmarked) [Compound 57]", "values": [{"measurement": "EC50", "value": 1250, "unit": "nM"}, {"measurement": "Max Plateau", "value": "246.00 ± 16.33 per cent fraction of low control"}]}, {"molecule": "CCC(=O)C1=C(CC)Nc2sc(C(=O)c3ccc(Cl)c(Cl)c3)c(N)c2C1c1cccc([N+](=O)[O-])c1", "note": "(centres unmarked) [Compound 58]", "values": [{"measurement": "EC50", "value": 129, "unit": "nM"}, {"measurement": "Max Plateau", "value": "232.20 ± 56.57 per cent fraction of low control"}]}, {"molecule": "CCC(=O)C1=C(CC)Nc2sc(C(=O)c3ccc(Cl)c(Cl)c3)c(N)c2C1c1ccccc1[N+](=O)[O-]", "note": "(centres unmarked) [Compound 59]", "values": [{"measurement": "EC50", "value": 425, "unit": "nM"}, {"measurement": "Max Plateau", "value": "152.77 ± 11.42 per cent fraction of low control"}]}]}
